Test results: BindingDB's records for doi:10.1016/s0028-3908(05)80009-7 (Universit&Eacute, 1994)
Where a SMILES comes first, the peptide text is derived from it.

biological target: T1, Pituitary adenylate cyclase-activating polypeptide (Rattus norvegicus, UniProt P13589)
T1 sequence (P13589 whole entry): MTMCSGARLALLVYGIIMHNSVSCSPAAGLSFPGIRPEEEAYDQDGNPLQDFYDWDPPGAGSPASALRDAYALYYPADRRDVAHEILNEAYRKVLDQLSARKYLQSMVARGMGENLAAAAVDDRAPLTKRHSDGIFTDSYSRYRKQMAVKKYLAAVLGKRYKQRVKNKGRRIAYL

Row | SMILES | Ki
1 | CC[C@H](C)[C@H](NC(=O)CNC(=O)[C@H](CC(=O)O)NC(=O)[C@H](CO)NC(=O)[C@@H](N)Cc1cnc[nH]1)C(=O)N[C@@H](Cc1ccccc1)C(=O)N[C@H](C(=O)N[C@@H](CC(=O)O)C(=O)N[C@@H](CO)C(=O)N[C@@H](Cc1ccc(O)cc1)C(=O)N[C@@H](CO)C(=O)N[C@@H](CCCNC(=N)N)C(=O)N[C@@H](Cc1ccc(O)cc1)C(=O)N[C@@H](CCCNC(=N)N)C(=O)N[C@@H](CCCCN)C(=O)N[C@@H](CCC(N)=O)C(=O)N[C@@H](CCSC)C(=O)N[C@@H](C)C(=O)N[C@H](C(=O)N[C@@H](CCCCN)C(=O)N[C@@H](CCCCN)C(=O)N[C@@H](Cc1ccc(O)cc1)C(=O)N[C@@H](CC(C)C)C(=O)N[C@@H](C)C(=O)N[C@@H](C)C(=O)N[C@H](C(=O)N[C@@H](CC(C)C)C(=O)NCC(=O)N[C@@H](CCCCN)C(=O)N[C@@H](CCCNC(=N)N)C(=O)N[C@@H](Cc1ccc(O)cc1)C(=O)N[C@@H](CCCCN)C(=O)N[C@@H](CCC(N)=O)C(=O)N[C@@H](CCCNC(=N)N)C(=O)N[C@H](C(=O)N[C@@H](CCCCN)C(=O)N[C@@H](CC(N)=O)C(=O)N[C@@H](CCCCN)C(N)=O)C(C)C)C(C)C)C(C)C)[C@@H](C)O [PACAP] | 0.3 nM
2 | CC[C@H](C)[C@H](NC(=O)CNC(=O)[C@H](CC(=O)O)NC(=O)[C@H](C)NC(=O)[C@@H](N)Cc1cnc[nH]1)C(=O)N[C@@H](Cc1ccccc1)C(=O)N[C@H](C(=O)N[C@@H](CC(=O)O)C(=O)N[C@@H](CO)C(=O)N[C@@H](Cc1ccc(O)cc1)C(=O)N[C@@H](CO)C(=O)N[C@@H](CCCNC(=N)N)C(=O)N[C@@H](Cc1ccc(O)cc1)C(=O)N[C@@H](CCCNC(=N)N)C(=O)N[C@@H](CCCCN)C(=O)N[C@@H](CCC(N)=O)C(=O)N[C@@H](CCSC)C(=O)N[C@@H](C)C(=O)N[C@H](C(=O)N[C@@H](CCCCN)C(=O)N[C@@H](CCCCN)C(=O)N[C@@H](Cc1ccc(O)cc1)C(=O)N[C@@H](CC(C)C)C(=O)N[C@@H](C)C(=O)N[C@@H](C)C(=O)N[C@H](C(=O)N[C@@H](CC(C)C)C(N)=O)C(C)C)C(C)C)[C@@H](C)O [[Ala2]PACAP(1-27)] | 0.3 nM
3 | CC[C@H](C)[C@H](NC(=O)CNC(=O)[C@H](CC(=O)O)NC(=O)[C@H](CCCN=C(N)N)NC(=O)[C@@H](N)Cc1cnc[nH]1)C(=O)N[C@@H](Cc1ccccc1)C(=O)N[C@H](C(=O)N[C@@H](CC(=O)O)C(=O)N[C@@H](CO)C(=O)N[C@@H](Cc1ccc(O)cc1)C(=O)N[C@@H](CO)C(=O)N[C@@H](CCCN=C(N)N)C(=O)N[C@@H](Cc1ccc(O)cc1)C(=O)N[C@@H](CCCN=C(N)N)C(=O)N[C@@H](CCCCN)C(=O)N[C@@H](CCC(N)=O)C(=O)N[C@@H](CCSC)C(=O)N[C@@H](C)C(=O)N[C@H](C(=O)N[C@@H](CCCCN)C(=O)N[C@@H](CCCCN)C(=O)N[C@@H](Cc1ccc(O)cc1)C(=O)N[C@@H](CC(C)C)C(=O)N[C@@H](C)C(=O)N[C@@H](C)C(=O)N[C@H](C(=O)N[C@@H](CC(C)C)C(=O)NCC(=O)N[C@@H](CCCCN)C(=O)N[C@@H](CCCN=C(N)N)C(=O)N[C@@H](Cc1ccc(O)cc1)C(=O)N[C@@H](CCCCN)C(=O)N[C@@H](CCC(N)=O)C(=O)N[C@@H](CCCN=C(N)N)C(=O)N[C@H](C(=O)N[C@@H](CCCCN)C(=O)N[C@@H](CC(N)=O)C(=O)N[C@@H](CCCCN)C(N)=O)C(C)C)C(C)C)C(C)C)[C@@H](C)O [[Arg2]PACAP(1-38)] | 10 nM
4 | CC[C@H](C)[C@H](NC(=O)CNC(=O)[C@H](CC(N)=O)NC(=O)[C@H](CO)NC(=O)[C@@H](N)Cc1cnc[nH]1)C(=O)N[C@@H](Cc1ccccc1)C(=O)N[C@H](C(=O)N[C@@H](CC(=O)O)C(=O)N[C@@H](CO)C(=O)N[C@@H](Cc1ccc(O)cc1)C(=O)N[C@@H](CO)C(=O)N[C@@H](CCCNC(=N)N)C(=O)N[C@@H](Cc1ccc(O)cc1)C(=O)N[C@@H](CCCNC(=N)N)C(=O)N[C@@H](CCCCN)C(=O)N[C@@H](CCC(N)=O)C(=O)N[C@@H](CCSC)C(=O)N[C@@H](C)C(=O)N[C@H](C(=O)N[C@@H](CCCCN)C(=O)N[C@@H](CCCCN)C(=O)N[C@@H](Cc1ccc(O)cc1)C(=O)N[C@@H](CC(C)C)C(=O)N[C@@H](C)C(=O)N[C@@H](C)C(=O)N[C@H](C(=O)N[C@@H](CC(C)C)C(N)=O)C(C)C)C(C)C)[C@@H](C)O [[Asn3]PACAP(1-27)] | 4000 nM

The next lines start with the values.

Row | Ki | SMILES
5 | 3 nM | CNC(=O)[C@H](Cc1ccc(O)cc1)NC(=O)[C@H](CCCN=C(N)N)NC(=O)[C@H](CCCCN)NC(=O)CNC(=O)[C@H](CC(C)C)NC(=O)[C@@H](NC(=O)[C@H](C)NC(=O)[C@H](C)NC(=O)[C@H](CC(C)C)NC(=O)[C@H](Cc1ccc(O)cc1)NC(=O)[C@H](CCCCN)NC(=O)[C@H](CCCCN)NC(=O)[C@@H](NC(=O)[C@H](C)NC(=O)[C@H](CCSC)NC(=O)[C@H](CCC(N)=O)NC(=O)[C@H](CCCCN)NC(=O)[C@H](CCCN=C(N)N)NC(=O)[C@H](Cc1ccc(O)cc1)NC(=O)[C@H](CCCN=C(N)N)NC(=O)[C@H](CO)NC(=O)[C@H](Cc1ccc(O)cc1)NC(=O)[C@H](CO)NC(=O)[C@H](CC(=O)O)NC(=O)[C@@H](NC(=O)[C@@H](N)Cc1ccccc1)[C@@H](C)O)C(C)C)C(C)C [PACAP(6-31)] (H-FTDSYSRYRKQMAVKKYLAAVLGKRY-NHMe)
6 | 1 nM | CC[C@H](C)[C@H](NC(=O)CNC(=O)[C@H](CC(=O)O)NC(=O)[C@H](CO)NC(=O)[C@H](Cc1cnc[nH]1)NC(C)=O)C(=O)N[C@@H](Cc1ccccc1)C(=O)N[C@H](C(=O)N[C@@H](CC(=O)O)C(=O)N[C@@H](CO)C(=O)N[C@@H](Cc1ccc(O)cc1)C(=O)N[C@@H](CO)C(=O)N[C@@H](CCCNC(=N)N)C(=O)N[C@@H](Cc1ccc(O)cc1)C(=O)N[C@@H](CCCNC(=N)N)C(=O)N[C@@H](CCCCN)C(=O)N[C@@H](CCC(N)=O)C(=O)N[C@@H](CCSC)C(=O)N[C@@H](C)C(=O)N[C@H](C(=O)N[C@@H](CCCCN)C(=O)N[C@@H](CCCCN)C(=O)N[C@@H](Cc1ccc(O)cc1)C(=O)N[C@@H](CC(C)C)C(=O)N[C@@H](C)C(=O)N[C@@H](C)C(=O)N[C@H](C(=O)N[C@@H](CC(C)C)C(N)=O)C(C)C)C(C)C)[C@@H](C)O [[AcHis1]PACAP(1-27)]
7 | 1000 nM | CC[C@H](C)[C@H](NC(=O)CNC(=O)[C@H](CC(=O)O)NC(=O)[C@H](CCCN=C(N)N)NC(=O)[C@@H](N)Cc1cnc[nH]1)C(=O)N[C@@H](Cc1ccccc1)C(=O)N[C@H](C(=O)N[C@@H](CC(=O)O)C(=O)N[C@@H](CO)C(=O)N[C@@H](Cc1ccc(O)cc1)C(=O)N[C@@H](CO)C(=O)N[C@@H](CCCN=C(N)N)C(=O)N[C@@H](Cc1ccc(O)cc1)C(=O)N[C@@H](CCCN=C(N)N)C(=O)N[C@@H](CCCCN)C(=O)N[C@@H](CCC(N)=O)C(=O)N[C@@H](CCSC)C(=O)N[C@@H](C)C(=O)N[C@H](C(=O)N[C@@H](CCCCN)C(=O)N[C@@H](CCCCN)C(=O)N[C@@H](Cc1ccc(O)cc1)C(=O)N[C@@H](CC(C)C)C(=O)N[C@@H](C)C(=O)N[C@@H](C)C(=O)N[C@H](C(=O)N[C@@H](CC(C)C)C(N)=O)C(C)C)C(C)C)[C@@H](C)O [[Arg2]PACAP(1-27)]
